Results taken from patent US11622556B2, “Re-oiled and hyper-oiled lecithin carrier vehicles” (BIO-UP MIMETIC TECHNOLOGIES, INC., priority 2016, dated 2023).

Columns and labels:
Sinorhizobium meliloti = assay: Microbial growth in 96-well plate, change in absorbance at 630 nm; format: cell-based; settings: for overall potency order of essential oils: essential oils in de-oiled lecithin liposomes with triglyceride
mosquito larvae = format: in vivo; settings: liposomal essential oils in pond water

O=CC=Cc1ccccc1 [cinnamaldehyde]
overall potency order of essential oils (Sinorhizobium meliloti): vetiver≈cinnamaldehyde>citronella≈sandalwood≈bayleaf≈patchouli≈rosewood>linalool≈d-limonene | activity as a single agent (Sinorhizobium meliloti; liposomes with 0, 20 or 45 wt % triglyceride, particularly notable at 45%): greater activity than citronella | larvicidal activity order (mosquito larvae): thymol>cinnamaldehyde˜d-limonene>citronella˜eugenol>sandalwood oil˜coriander oil˜lavender oil

C=C(C)[C@H]1CC=C(C)CC1 [d-limonene]
overall potency order of essential oils (Sinorhizobium meliloti): vetiver≈cinnamaldehyde>citronella≈sandalwood≈bayleaf≈patchouli≈rosewood>linalool≈d-limonene | larvicidal activity order (mosquito larvae): thymol>cinnamaldehyde˜d-limonene>citronella˜eugenol>sandalwood oil˜coriander oil˜lavender oil

COc1cc(/C=C/C(=O)CC(=O)/C=C/c2ccc(O)c(OC)c2)ccc1O [diferuloylmethane, reference compound]
antimicrobial activity of marker label (Sinorhizobium meliloti; in liposome membrane): no antimicrobial activity

C=CCc1ccc(O)c(OC)c1 [eugenol]
larvicidal activity order (mosquito larvae): thymol>cinnamaldehyde˜d-limonene>citronella˜eugenol>sandalwood oil˜coriander oil˜lavender oil

Cc1ccc(C(C)C)c(O)c1 [thymol]
larvicidal activity order (mosquito larvae): thymol>cinnamaldehyde˜d-limonene>citronella˜eugenol>sandalwood oil˜coriander oil˜lavender oil
